In patent US8993622B2, “Antiviral compounds” (Eirium AB, priority 2010, dated 2015):
Like-named read-outs stand apart in the source and are kept apart here.

Test system: Ad5
Assay: microbe, parasite or virus in culture
Type: cell-based, human adenovirus
Settings: for inhibition at 5 µM: A549, read-out: % Inh. at 5 μM; for effect on the replication of Ad5 (QPCR): A549 cells; for inhibition at 20 µM: A549, read-out: % Inh. at 20 μM; for Inh. (% inhibition of Ad5 at 15 μM): Ad5, 15 μM (Table 2)
[1] = unidentified adenovirus, A549, read-out: % Inh. at 15 μM

O=C(Nc1ccccc1C(=O)Nc1cc(F)c(F)cc1C(=O)O)c1ccccc1F [Compound 35e, 2-[2-(2-fluorobenzoylamino)-benzoylamino]-4,5-difluorobenzoic acid] showed an inhibition at 5 µM (unidentified adenovirus) of 0% and an inhibition at 15 µM [1] of 0%.
With Cc1ccc(S(=O)(=O)Nc2ccccc2C(=O)Nc2ccccc2C(=O)O)cc1 [Compound 17c, 2-[2-(p-Toluenesulfonylamino)benzoylamino]benzoic acid] the inhibition at 5 µM (unidentified adenovirus) was 2 ± 24% and the inhibition at 15 µM [1] was 8 ± 35%.
In the case of O=C(Nc1ccccc1C(=O)O)c1ccccc1 [Compound A01, reference compound], the “effect on the replication of Ad5 (QPCR)” value is reported as “Neither the smaller (A01) nor the larger (A03) molecule showed any anti-adenoviral effect”.
Work on O=C(Nc1ccccc1C(=O)Nc1cc(Cl)ccc1C(=O)O)c1ccccc1F [Compound 35a, 2-[2-(2-fluorobenzoylamino)-benzoylamino]-4-chlorobenzoic acid] yielded an inhibition at 5 µM (unidentified adenovirus) of 0% and an inhibition at 15 µM [1] of 61%.
Cc1ccc(C(=O)Nc2ccccc2C(=O)Nc2ccccc2C(=O)O)cc1 [Compound 12c, 2-[[2-(4-Methyl-benzoylamino)benzoyl]amino]-benzoic acid] was tested, and the inhibition at 5 µM (Human adenovirus sp.) was 89.2% and the inhibition at 20 µM (Human adenovirus sp.) was 98.5%.
Molecule O=C(Nc1ccc(C(=O)Nc2ccccc2C(=O)O)cc1)c1ccccc1 [Compound 8d, 2-[(4-benzoylamino)benzoylamino]-benzoic acid] has an inhibition at 15 µM (Human adenovirus sp., A549, read-out: Inh. (% inhibition of Ad5 at 15 μM)) of 47%.
With CCOC(=O)c1ccccc1NC(=O)c1ccc(NC(=O)c2ccccc2)cc1 [Compound 7d, Ethyl 2-[(4-benzoylamino)benzoylamino]-benzoate] the “Inh. (% inhibition of Ad5 at 15 μM)” value was 15%.
Molecule NC(=O)c1ccccc1NC(=O)c1cccc(NC(=O)c2ccccc2)c1 [Compound 12d, 2-[[3-(Benzoylamino)benzoyl]amino]-benzamide] has an inhibition at 5 µM (Human adenovirus sp.) of 51.1% and an inhibition at 20 µM (Human adenovirus sp.) of 44.2%.
In the case of O=C(O)c1cccc(NC(=O)c2ccccc2NC(=O)c2ccccc2)c1 [Compound 8a, 3-[(2-benzoylamino)benzoylamino]-benzoic acid], the “Inh. (% inhibition of Ad5 at 15 μM)” value is reported as 8%.
O=C(Nc1ccccc1C(=O)Nc1ccc(Cl)cc1C(=O)O)c1ccccc1F [Compound 35b, 2-[2-(2-fluorobenzoylamino)benzoylamino]-5-chlorobenzoic acid] gave an inhibition at 5 µM (unidentified adenovirus) of 0% and an inhibition at 15 µM [1] of 0%.
O=C(Cc1ccccc1NC(=O)c1ccccc1)Nc1ccccc1C(=O)O [Compound 28, 2-[2-(benzoylamino)phenylacetylamino]benzoic acid] was tested, and the inhibition at 5 µM (unidentified adenovirus) was 0% and the inhibition at 15 µM [1] was 0%.
For CCOC(=O)c1ccccc1NC(=O)c1cccc(NC(=O)c2ccccc2)c1 [Compound 7c, Ethyl 2-[(3-benzoylamino)benzoylamino]-benzoate], the “Inh. (% inhibition of Ad5 at 15 μM)” value was 25%.
For O=C(O)c1ccc(NC(=O)c2ccccc2NC(=O)c2ccccc2)cc1 [Compound 8b, 4-[(2-benzoylamino)benzoylamino]-benzoic acid], the “Inh. (% inhibition of Ad5 at 15 μM)” value was 8%.
O=C(Nc1ccccc1C(=O)Nc1ccccc1C(=O)Nc1ccccc1C(=O)O)c1ccccc1 [Compound A03, reference compound] was tested, and the “effect on the replication of Ad5 (QPCR)” value was “Neither the smaller (A01) nor the larger (A03) molecule showed any anti-adenoviral effect”.
Cc1ccccc1C(=O)Nc1cccc(C(=O)Nc2ccccc2C(=O)O)c1 [Compound 12e, 2-[[3-(2-Methyl-benzoylamino)benzoyl]amino]-benzoic acid] was tested, and the inhibition at 5 µM (Human adenovirus sp.) was 44% and the inhibition at 20 µM (Human adenovirus sp.) was 55.8%.
With O=C(O)c1ccccc1NC(=O)c1ccccc1NC(=O)C1CCCCC1 [Compound 17e, 2-[[2-(Cyclohexanecarboxylamino)benzoyl]amino]benzoic acid] the “activity compared with A02 (inhibition of adenovirus replication)” value (second generation inhibitors, Table 4) was “diminished but not abolished activity”, the inhibition at 5 µM (unidentified adenovirus) was 20 ± 1% and the inhibition at 15 µM [1] was 55 ± 11%.
COc1ccc(C(=O)O)c(NC(=O)c2ccccc2NC(=O)c2ccccc2F)c1 [Compound 35c, 2-[2-(2-fluorobenzoylamino)-benzoylamino]-4-methoxybenzoic acid] gave an inhibition at 5 µM (unidentified adenovirus) of 79 ± 21% and an inhibition at 15 µM [1] of 95 ± 22%.
